Measurements reported in PMC3344892, “NAD-Independent L-Lactate Dehydrogenase Is Required for L-Lactate Utilization in Pseudomonas stutzeri SDM” (PLoS ONE, 2012).

Assays:
[1] = target: T1, L-iLDH (NAD-independent L-lactate dehydrogenase) from P. stutzeri SDM (Stutzerimonas stutzeri, UniProt I1SLB1); experiment: HPLC of flavin released by boiling; UV-visible spectrum; assay type: binding; conditions: native enzyme purified from membrane; recombinant enzyme similar; one FMN per subunit
T1 construct: gene lldD; full-length lldD in pETDuet-1 (HindIII/XhoI), expressed in E. coli C43(DE3), HisTrap purified (tag not described); also purified natively from membrane with Triton X-100; one FMN per subunit
T1 sequence (I1SLB1 1-391): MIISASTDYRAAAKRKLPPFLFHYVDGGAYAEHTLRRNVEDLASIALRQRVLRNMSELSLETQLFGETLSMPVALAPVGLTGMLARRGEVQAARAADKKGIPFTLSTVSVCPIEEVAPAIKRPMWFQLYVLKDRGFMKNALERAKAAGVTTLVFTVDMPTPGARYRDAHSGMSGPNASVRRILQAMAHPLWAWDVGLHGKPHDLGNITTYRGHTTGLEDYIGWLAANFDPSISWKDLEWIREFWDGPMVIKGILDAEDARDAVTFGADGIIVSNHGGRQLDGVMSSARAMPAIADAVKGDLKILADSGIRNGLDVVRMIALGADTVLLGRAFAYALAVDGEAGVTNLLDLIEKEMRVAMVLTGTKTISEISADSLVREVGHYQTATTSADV

[2] = target: T1, L-iLDH (NAD-independent L-lactate dehydrogenase) from P. stutzeri SDM; experiment: MTT reduction at […] nm, double-reciprocal plots; assay type: biochemical
purified protein [3] = substrate: C[C@H](O)C(=O)O; experiment: purified protein; assay type: biochemical, Stutzerimonas stutzeri; conditions: apparent, fixed 0.2 mM MTT as electron acceptor, 50 mM Tris-HCl pH 7.5, 30°C
purified protein [4] = substrate: CC[C@H](O)C(=O)O; experiment: purified protein; assay type: biochemical, Stutzerimonas stutzeri; conditions: apparent, fixed 0.2 mM MTT as electron acceptor, 50 mM Tris-HCl pH 7.5, 30°C

Q: Cc1cc2nc3c(=O)[nH]c(=O)nc-3n(C[C@H](O)[C@H](O)[C@H](O)COP(=O)(O)O)c2cc1C [FMN] was tested. Which “HPLC of flavin released by boiling; UV-visible spectrum” value [1] did it give?
A: the native enzyme contains one FMN per subunit

Q: With O=C(O)C(=O)O [oxalate] as the molecule, how does the Ki [2] read?
A: 1.9 ± 0.1 mM

Q: Which Ki [2] does the source give for NC(=O)C(=O)O [oxamate] here?
A: 29 ± 1.7 mM

B1: L-iLDH (NAD-independent L-lactate dehydrogenase) from P. stutzeri SDM (Stutzerimonas stutzeri) (protein)
chain: T1 sequence (I1SLB1 1-391)
notes: full-length lldD in pETDuet-1 (HindIII/XhoI), expressed in E. coli C43(DE3), HisTrap purified (tag not described); also purified natively from membrane with Triton X-100; one FMN per subunit
Q: Which Km (purified protein [3]) does the source give for B1 here?
A: 29 ± 0.65 µM

Q: What about the Km (purified protein [4]) of the same molecule?
A: 99 ± 3.9 µM
